Molecules are shown by their SMILES.

Chain of human activated kallikrein enzyme (P03952 391-638 limits assumed): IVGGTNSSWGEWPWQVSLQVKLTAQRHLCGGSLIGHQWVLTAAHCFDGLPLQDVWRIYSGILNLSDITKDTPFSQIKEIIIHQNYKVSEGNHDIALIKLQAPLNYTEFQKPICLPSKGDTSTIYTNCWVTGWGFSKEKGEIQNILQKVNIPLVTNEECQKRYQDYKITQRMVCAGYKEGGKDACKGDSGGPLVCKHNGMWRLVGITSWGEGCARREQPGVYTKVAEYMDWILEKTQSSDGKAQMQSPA
Chain of human activated kallikrein enzyme (P03952 20-390 partner limits assumed): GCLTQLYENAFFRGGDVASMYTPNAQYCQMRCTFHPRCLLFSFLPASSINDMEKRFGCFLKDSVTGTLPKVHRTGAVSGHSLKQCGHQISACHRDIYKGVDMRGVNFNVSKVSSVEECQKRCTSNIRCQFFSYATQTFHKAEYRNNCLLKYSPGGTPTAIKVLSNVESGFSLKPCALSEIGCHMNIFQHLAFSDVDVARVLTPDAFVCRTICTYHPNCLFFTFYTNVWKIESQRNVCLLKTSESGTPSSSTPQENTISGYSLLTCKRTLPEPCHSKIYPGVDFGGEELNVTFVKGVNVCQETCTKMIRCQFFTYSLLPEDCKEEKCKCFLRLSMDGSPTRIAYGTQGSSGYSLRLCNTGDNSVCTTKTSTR

The test deals with human activated kallikrein enzyme (Homo sapiens, UniProt P03952). Put plainly: Plasma kallikrein inhibition, fluorogenic PFR-AMC substrate, 500 pM activated kallikrein format. It counts as biochemical. As to conditions: 500 pM activated kallikrein, 300 uM PFR-AMC, 30 min preincubation, 10 min reaction; read-out: Primary Dose Response Assay: Average EC50. A digest of the protocol:
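Enzyme at 500 pM preincubated 30 min RT with inhibitors in 20 mM Tris pH 7.5, 1 mM EDTA, 150 mM NaCl, 0.1% PEG-400, 0.1% Triton X-100. Reaction started with 300 uM PFR-AMC, run 10 min RT; fluorescence read at 460 nm emission, 380 nm excitation. EC50 reported in ranges.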
As a reminder, the EC50 is the midpoint of the concentration-response curve. As to `Cc1ccnc([C@H]2C[C@]2(F)C(=O)Nc2cc(N[C@H](C)c3cn4cc(C5CC5)cc(N5CC(=O)N(C)C5=O)c4n3)nc(C)n2)n1` (racemic) [Example 528, rac-(1S*,2S*)-N-(6-(((R)-1-(6-cyclopropyl-8-(3-methyl-2,4-dioxoimidazolidin-1-yl)imidazo[1,2-a]pyridin-2-yl)ethyl)amino)-2-methylpyrimidin-4-yl)-1-fluoro-2-(4-methylpyrimidin-2-yl)cyclopropane-1-carboxamide], the EC50 lay within 1 to 10 nM. Consider `NCc1cc(C2CC2)cn2cc(COc3ccnc(NC(=O)[C@H]4C[C@@H]4c4cccc(Cl)c4)c3)nc12` (racemic) [Example 572, rac-(1S*,2S*)—N-(4-((8-(aminomethyl)-6-cyclopropylimidazo[1,2-a]pyridin-2-yl)methoxy)pyridin-2-yl)-2(3-chlorophenyl)cyclopropane-1-carboxamide], for which the EC50 was in the range of 1 to 10 nM.

With `Cc1ccnc(C2CC2C(=O)Nc2cc(OCc3cn4cc(C5CC5)cc(N5CC(=O)N(C)C5=O)c4n3)c(C(F)(F)F)nn2)n1` (stereo not drawn) [Example 666, N-(5-((6-cyclopropyl-8-(3-methyl-2,4-dioxoimidazolidin-1-yl)imidazo[1,2-a]pyridin-2-yl)methoxy)-6-(trifluoromethyl)pyridazin-3-yl)-2-(4-methylpyrimidin-2-yl)cyclopropane-1-carboxamide], the EC50 is under 1 nM.

With `CC(C)(C)OC(=O)Nc1cc(C2CC2)cn2cc(CNc3cc(NC(=O)[C@H]4C[C@@H]4c4cccc(Cl)c4)ncn3)nc12` [Example I-156, tert-butyl (2-(((6-((15,2S)-2-(3-chlorophenyl)cyclopropane-1-carboxamido)pyrimidin-4-yl)amino)methyl)-6-cyclopropylimidazo[1,2-a]pyridin-8-yl)carbamate], the EC50 is 100 to 1000 nM. As to `C[C@H]1[C@H](C(=O)Nc2cc(NCc3cn4cc(C5CC5)ccc4n3)ncn2)[C@H]1c1cccc(Cl)c1` (single isomer, unassigned) [Example 508, (1R*,2R*,3S*)-2-(3-chlorophenyl)-N-(6-(((6-cyclopropylimidazo[1,2-a]pyridin-2-yl)methyl)amino)pyrimidin-4-yl)-3-methylcyclopropane-1-carboxamide], the EC50 was over 6000 nM. Under `O=C(Nc1cc(NCc2cn3cc(C4CC4)cc(N4CCC(O)CC4)c3n2)ncn1)[C@H]1C[C@@H]1c1cccc(Cl)c1` (stereo in doubt) [Example I-3, (1S,2S)-2-(3-chlorophenyl)-N-(6-(((6-cyclopropyl-8-(4-hydroxypiperidin-1-yl)imidazo[1,2-a]pyridin-2-yl)methyl)amino)pyrimidin-4-yl)cyclopropane-1-carboxamide] stands 1 to 10 nM. Consider `Cc1ccnc([C@@H]2C[C@H]2C(=O)Nc2cc(OCc3cn4cc(C5CC5)cc(N5CC(=O)N(C)C5=O)c4n3)ncn2)n1` (single isomer, unassigned) [Example 29], for which the concentration for a half-maximal effect (EC50) fell in the range of 100 to 1000 nM. Turning to `O=C(Nc1cc(NC(c2cn3cc(C4CC4)ccc3n2)C(F)(F)F)ccn1)[C@H]1C[C@@H]1c1cccc(Cl)c1` (stereo partly drawn) [Example 141], the EC50 is 100 to 1000 nM. `O=C(Nc1cc(NCc2cn3cc(C4CC4)ccc3n2)ncn1)[C@H]1C[C@@H]1c1cc(Cl)ccc1O` (racemic) [Example 313, rac-(1S*,2S*)-2-(5-chloro-2-hydroxyphenyl)-N-(6-(((6-cyclopropylimidazo[1,2-a]pyridin-2-yl)methyl)amino)pyrimidin-4-yl)cyclopropane-1-carboxamide]: the EC50 fell in the range of 1 to 10 nM.

With `Nc1cc(Cl)cc([C@H]2C[C@@H]2C(=O)Nc2cc(NCc3cn4cc(C5CC5)ccc4n3)ncn2)c1` (single isomer, unassigned) [Example I-258, rac-(1S*,2S*)-2-(3-amino-5-chlorophenyl)-N-(6-(((6-cyclopropylimidazo[1,2-a]pyridin-2-yl)methyl)amino)pyrimidin-4-yl)cyclopropane-1-carboxamide], the EC50 lay within 1000 to 6000 nM.

For `Cc1ccnc([C@H]2C[C@@H]2C(=O)Nc2cc(N[C@H](C)c3cn4cc(C5CC5)cc(N5CC(=O)NC5=O)c4n3)ncn2)n1` [Example 533, (1S,2S)-N-(6-(((R)-1-(6-cyclopropyl-8-(2,4-dioxoimidazolidin-1-yl)imidazo[1,2-a]pyridin-2-yl)ethyl)amino)pyrimidin-4-yl)-2-(4-methylpyrimidin-2-yl)cyclopropane-1-carboxamide], the concentration for a half-maximal effect (EC50) was under 1 nM. Consider `CN1C(=O)[C@]2(C[C@H]2C(=O)Nc2cc(NCc3cn4cc(C5CC5)ccc4n3)ncn2)c2cc(Cl)ccc21` (racemic) [Example 413, rac-(1R*,2S*)-5′-chloro-N-(6-(((6-cyclopropylimidazo[1,2-a]pyridin-2-yl)methyl)amino)pyrimidin-4-yl)-1′-methyl-2′-oxospiro[cyclopropane-1,3′-indoline]-2-carboxamide], for which the EC50 was 100 to 1000 nM. The value for `O=C(Nc1cc(NCc2cn3cc(C4CC4)ccc3n2)ncn1)[C@H]1C[C@@H]1c1cc(F)cc(Cl)c1` (racemic) [Example 46, rac-(1S*,2S*)-2-(3-chloro-5-fluorophenyl)-N-(6-(((6-cyclopropylimidazo[1,2-a]pyridin-2-yl)methyl)amino)pyrimidin-4-yl)cyclopropane-1-carboxamide] was 10 to 100 nM. For `Cc1ccnc([C@H]2C[C@@H]2C(=O)Nc2cc(OCc3cn4c(N5CC(=O)N(C)C5=O)cc(C5CC5)cc4n3)ncn2)n1` [Example 554, (1S,2S)-N-(6-((7-cyclopropyl-5-(3-methyl-2,4-dioxoimidazolidin-1-yl)imidazo[1,2-a]pyridin-2-yl)methoxy)pyrimidin-4-yl)-2-(4-methylpyrimidin-2-yl)cyclopropane-1-carboxamide], the EC50 fell in the range of 100 to 1000 nM. The value for `N#Cc1ccc(Cl)cc1[C@H]1C[C@@H]1C(=O)Nc1cc(NCc2cn3cc(C4CC4)ccc3n2)ncn1` (racemic) [Example 48, rac-(1S*,2S*)-2-(5-chloro-2-cyanophenyl)-N-(6-(((6-cyclopropylimidazo[1,2-a]pyridin-2-yl)methyl)amino)pyrimidin-4-yl)cyclopropane-1-carboxamide] was 1 to 10 nM; that for `O=C(Nc1cc(NCc2cn3cc(C4CC4)cc(N4CCCC4C(F)(F)F)c3n2)ncn1)[C@H]1C[C@@H]1c1cccc(Cl)c1` (stereo partly drawn) [Example I-158, (1S,2S)-2-(3-chlorophenyl)-N-(6-(((6-cyclopropyl-8-(2-(trifluoromethyl)pyrrolidin-1-yl)imidazo[1,2-a]pyridin-2-yl)methyl)amino)pyrimidin-4-yl)cyclopropane-1-carboxamide] was 100 to 1000 nM. `CC1CCN(c2cc(C3CC3)cn3cc(CNc4cc(NC(=O)[C@H]5C[C@@H]5c5cccc(Cl)c5)ncn4)nc23)C1=O` (relative stereo) [Example 67, rac-(1S*,2S*)-2-(3-chlorophenyl)-N-(6-(((6-cyclopropyl-8-(3-methyl-2-oxopyrrolidin-1-yl)imidazo[1,2-a]pyridin-2-yl)methyl)amino)pyrimidin-4-yl)cyclopropane-1-carboxamide]: the EC50 fell in the range of 1 to 10 nM. For the compound `O=C(Nc1cc(NCc2cn3cc(C4CC4)ccc3n2)ccn1)[C@H]1C[C@@H]1c1cc(Cl)cnn1` (racemic) [Example I-211, rac-(1S*,2S*)-2-(5-chloropyridazin-3-yl)-N-(4-(((6-cyclopropylimidazo[1,2-a]pyridin-2-yl)methyl)amino)pyridin-2-yl)cyclopropane-1-carboxamide], the concentration for a half-maximal effect (EC50) lay in the range of 10 to 100 nM. Under `Cc1ccnc([C@H]2C[C@@H]2C(=O)Nc2ncnc3nn(Cc4cn5cc(C6CC6)cc(N6CC(=O)N(C)C6=O)c5n4)cc23)n1` (single isomer, unassigned) [Example I-633, rac-(1S*,2S*)—N-(2-((6-cyclopropyl-8-(3-methyl-2,4-dioxoimidazolidin-1-yl)imidazo[1,2-a]pyridin-2-yl)methyl)-2H-pyrazolo[3,4-d]pyrimidin-4-yl)-2-(4-methylpyrimidin-2-yl)cyclopropane-1-carboxamide] stands 100 to 1000 nM; under `COc1ncccc1-c1cc(C2CC2)cn2cc(CNc3cc(NC(=O)[C@H]4C[C@@H]4c4cccc(Cl)c4)ncn3)nc12` [Example I-150, (1S,2S)-2-(3-chlorophenyl)-N-(6-(((6-cyclopropyl-8-(2-methoxypyridin-3-yl)imidazo[1,2-a]pyridin-2-yl)methyl)amino)pyrimidin-4-yl)cyclopropane-1-carboxamide], 10 to 100 nM; under `N#Cc1ccc(Cl)cc1[C@H]1C[C@@H]1C(=O)Nc1cc(C(O)c2cn3cc(C4CC4)ccc3n2)ncn1` (relative stereo) [Example 352, rac-(1S*,2S*)-2-(5-chloro-2-cyanophenyl)-N-(6-((6-cyclopropylimidazo[1,2-a]pyridin-2-yl)(hydroxy)methyl)pyrimidin-4-yl)cyclopropane-1-carboxamide], 10 to 100 nM. Regarding `CC(C)(C)OC(=O)Nc1ccc([C@H]2C[C@@H]2C(=O)Nc2cc(NCc3cn4cc(C5CC5)ccc4n3)ncn2)cc1Cl` (racemic) [Example I-188, rac-tert-butyl (2-chloro-4-((1S*,2S*)-2-((6-(((6-cyclopropylimidazo[1,2-a]pyridin-2-yl)methyl)amino)pyrimidin-4-yl)carbamoyl)cyclopropyl)phenyl)carbamate], the EC50 is over 6000 nM. As for `O=C(Nc1cc(N2C[C@@H](O)C[C@@H]2c2cn3cc(C4CC4)ccc3n2)ncn1)[C@H]1C[C@@H]1c1cc(Cl)ccn1` (single isomer, unassigned; isomer 1) [Example I-248, (1S*,2S*)-2-(4-chloropyridin-2-yl)-N-(6-((2R,4S)-2-(6-cyclopropylimidazo[1,2-a]pyridin-2-yl)-4-hydroxypyrrolidin-1-yl)pyrimidin-4-yl)cyclopropane-1-carboxamide, isomer 1], the half-maximal effective concentration (EC50) is 1000 to 6000 nM. For the compound `N#Cc1cc(C2CC2)cn2cc(CNc3ccnc(NC(=O)[C@@H]4C[C@H]4c4cccc(Cl)c4)c3)nc12` (racemic) [Example 119, rac-(1S*,2S*)-2-(3-chlorophenyl)-N-(4-(((8-cyano-6-cyclopropylimidazo[1,2-a]pyridin-2-yl)methyl)amino)pyridin-2-yl)cyclopropane-1-carboxamide], the concentration for a half-maximal effect (EC50) fell in the range of 1 to 10 nM.

(Values after patent US20240228488A1 (TAKEDA PHARMACEUTICAL COMPANY LIMITED, priority 2021, published 2024).)
